Starred links: 1 amine or outer side, 2 acyl side, 3 side chain; linkers in the order of their positions; H or OH if unused. Non-standard residues stand in square brackets, D forms with d. Groups on a side chain read outwards from the residue. *: point of attachment. C18 diacid = O=C(O)CCCCCCCCCCCCCCCCC(=O)*; γGlu = O=C(O)[C@H](CCC(=O)[*:2])N[*:1]; Aib = CC(C)(N)C(=O)O
Key:
Assay type in all cases: in vivo, C57BL/6J mice
[1] = test system: Short Bowel Syndome (SBS) mice; assay: SBS mouse model: gross morphology / length of intestine on day 14; settings: ICR mice, 30 nmol/kg once daily, FIG. 16
Source text: (§1) Adult, male C57BL/6J mice with ˜30 g body weight of ˜4 months, received a 12-cm ileum and cecum resection (ICR) with jejunocolonic anastomosis (see FIG. 1, middle). The mice were then randomly assigned to either Cpd 18 or vehicle treatment As control for the abdominal surgery, the sham group was included which had laparotomy, bowel exposure, transection and end-to-end anastomosis but no resection (see FIG. 1, bottom). To prevent intestinal obstruction, all mice were switched to liquid diet 2 days before surgery and maintained on this diet until the end of the experiment. Throughout the experiment, animals were singly housed. All mice were studied with the intention to survive to day 14.
Briefly, mice were anesthetized by i.p. injection of ketamine (100 mg/kg bw) and xylazine (15 mg/kg bw) and orally intubated and ventilated. After midline incision, the distal small bowel and the cecum were exposed and then transected 12 cm proximal to the ileocecal junction and immediately distal to the cecum. The resected bowel was removed, and the length of the specimen was measured. An end-to-end, jejuno-colonic anastomosis was created and the abdomen was closed. […]
(§2) Mice were scored for wellbeing daily as described (Berlin et al. 2019). If the wellness score dropped to below 4 pts, or when weight loss exceeded 20%, the mouse was immediately killed and not analyzed further. […]

[2] = test system: Short Bowel Syndome (SBS) mice; assay: SBS mouse model: histological morphometry of intestine (mucosal height, bowel diameter); settings: ICR mice, 30 nmol/kg once daily, vs sham
Source text: as §1
Briefly, mice were anesthetized by i.p. injection of ketamine (100 mg/kg bw) and xylazine (15 mg/kg bw) and orally intubated and ventilated. […] The resected bowel was removed, and the length of the specimen was measured. […]
as §2
Sham and SBS mice were prepared as described under Preparation of Short Bowel Syndome (SBS) mice. […] Bowel diameter was measured from the same samples from serosa to serosa in two dimensions. […]

[3] = test system: Short Bowel Syndome (SBS) mice; assay: SBS mouse model: jejunum weight (wet weight, dry weight, water content per 2 cm); settings: ICR mice, 30 nmol/kg once daily
Source text: as §1
(§3) Briefly, mice were anesthetized by i.p. injection of ketamine (100 mg/kg bw) and xylazine (15 mg/kg bw) and orally intubated and ventilated. After midline incision, the distal small bowel and the cecum were exposed and then transected 12 cm proximal to the ileocecal junction and immediately distal to the cecum. The resected bowel was removed, and the length of the specimen was measured. An end-to-end, jejuno-colonic anastomosis was created and the abdomen was closed. In the sham group, laparotomy, bowel exposure, transection and end-to-end anastomosis but no resection was performed. Immediately after surgery, all mice were weighed and received 1 ml isotonic saline subcutaneously and carprofen 5 mg/kg body weight. All surgical procedures were performed by the same surgeon. Mice were kept in a heated terrarium (29° C.) for 4 h and then returned to individual cages with free access to liquid food and water. The liquid diet was provided in feeding tubes. […]
as §2
Sham and SBS mice were prepared as described under Preparation of Short Bowel Syndome (SBS) mice. […] Water content and dry weight was then derived and calculated.

[4] = test system: Short Bowel Syndome (SBS) mice; assay: Short bowel syndrome (SBS) mouse model: post operative survival, body weight and dietary intake; settings: ICR mice
Source text: as §1
as §3, with “tubes. Mice were allowed to recover for a day after surgery, and then injected once daily with 30 nmol/kg body weight of Cpd 18.” for “tubes.”
as §2
Body weight (FIG. 6) and food consumption (FIG. 7) was measured daily. […]

H-H[Aib]EGSFTSELATILDK([γGlu-C18 diacid])QAARDFIAWLIQHKITD-OH [Cpd 18]
bowel length and thickness ([1]; day 14, representative example vs sham): An increase in bowel length and thickness | solid feces in intestine ([1]; day 14, representative example, absent in vehicle): solid feces in the sham and Cpd 18 treated intestine | mucosal height ([2]; day 14, crypt base to villus tip, FIG. 8): approximately double the mucosal height of sham treated animals | bowel diameter ([2]; day 14, serosa to serosa, FIG. 9): approximately double the bowel diameter of sham treated animals | dry weight per 2 cm of intestine ([3]; day 14, desiccated sections, FIG. 11): the same increases in mass were measured | wet weight of 2 cm sections of intestine ([3]; day 14, proximal jejunum, FIG. 10): 73 mg | percentage of water content per 2 cm of intestine ([3]; day 14, FIG. 12): each group had an equal water content of the intestine | survival rate after 14 days ([4]; 30 nmol/kg body weight once daily from day 1 after surgery, FIG. 5): 74% | dietary intake ([4]; 30 nmol/kg once daily, liquid diet, measured daily, vs vehicle, FIG. 7): lower in the Cpd 18 treated animals from day 2 onwards as compared to vehicle | relative body weight (relative to initial weight) ([4]; 30 nmol/kg once daily, measured daily to day 14, vs vehicle, FIG. 6): differed from the vehicle group after six days onwards by starting to increase towards the initial weight
